How the values were obtained:
human MATE1 [1] = molecular target: T1, human MATE1 (Homo sapiens, UniProt Q96FL8)
T1 sequence (Q96FL8 1-570): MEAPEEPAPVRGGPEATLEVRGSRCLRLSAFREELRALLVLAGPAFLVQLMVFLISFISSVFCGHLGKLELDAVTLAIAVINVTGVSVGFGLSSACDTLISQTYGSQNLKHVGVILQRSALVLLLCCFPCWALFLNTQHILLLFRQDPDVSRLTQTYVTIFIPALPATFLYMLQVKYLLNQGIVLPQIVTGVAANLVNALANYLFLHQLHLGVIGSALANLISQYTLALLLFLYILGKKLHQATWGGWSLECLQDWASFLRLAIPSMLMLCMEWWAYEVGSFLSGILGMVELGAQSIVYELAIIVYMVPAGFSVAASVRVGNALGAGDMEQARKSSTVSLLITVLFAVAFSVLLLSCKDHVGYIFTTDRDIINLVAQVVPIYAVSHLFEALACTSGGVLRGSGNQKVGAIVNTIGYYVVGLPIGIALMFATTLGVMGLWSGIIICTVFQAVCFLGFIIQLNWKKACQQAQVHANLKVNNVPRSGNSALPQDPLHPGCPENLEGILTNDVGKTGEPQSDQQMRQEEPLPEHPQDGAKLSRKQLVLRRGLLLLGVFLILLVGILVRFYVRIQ

human OAT1 = molecular target: T2, human OAT1 (Homo sapiens, UniProt Q4U2R8); test: cell-based
T2 sequence (Q4U2R8 1-563): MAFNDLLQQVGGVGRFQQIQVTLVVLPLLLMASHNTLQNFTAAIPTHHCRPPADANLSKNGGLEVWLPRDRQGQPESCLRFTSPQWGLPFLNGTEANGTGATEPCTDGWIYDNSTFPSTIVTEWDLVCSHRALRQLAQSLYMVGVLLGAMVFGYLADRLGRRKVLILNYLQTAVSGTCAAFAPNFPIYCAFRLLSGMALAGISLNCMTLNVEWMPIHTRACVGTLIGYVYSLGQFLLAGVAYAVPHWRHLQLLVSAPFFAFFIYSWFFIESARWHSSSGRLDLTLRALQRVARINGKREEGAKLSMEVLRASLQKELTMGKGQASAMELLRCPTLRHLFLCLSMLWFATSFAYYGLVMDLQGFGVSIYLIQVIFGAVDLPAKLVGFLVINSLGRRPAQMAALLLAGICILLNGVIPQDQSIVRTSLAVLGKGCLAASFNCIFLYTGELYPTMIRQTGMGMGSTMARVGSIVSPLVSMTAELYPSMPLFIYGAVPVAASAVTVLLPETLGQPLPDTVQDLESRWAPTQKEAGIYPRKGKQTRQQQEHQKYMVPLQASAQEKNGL

human OATP2B1 = molecular target: T3, human OATP2B1 (Homo sapiens, UniProt O94956); test: cell-based; conditions: IC50 OATP2B1, experimental, mean ± SD; stable cells; substrate ES
T3 sequence (O94956 1-709): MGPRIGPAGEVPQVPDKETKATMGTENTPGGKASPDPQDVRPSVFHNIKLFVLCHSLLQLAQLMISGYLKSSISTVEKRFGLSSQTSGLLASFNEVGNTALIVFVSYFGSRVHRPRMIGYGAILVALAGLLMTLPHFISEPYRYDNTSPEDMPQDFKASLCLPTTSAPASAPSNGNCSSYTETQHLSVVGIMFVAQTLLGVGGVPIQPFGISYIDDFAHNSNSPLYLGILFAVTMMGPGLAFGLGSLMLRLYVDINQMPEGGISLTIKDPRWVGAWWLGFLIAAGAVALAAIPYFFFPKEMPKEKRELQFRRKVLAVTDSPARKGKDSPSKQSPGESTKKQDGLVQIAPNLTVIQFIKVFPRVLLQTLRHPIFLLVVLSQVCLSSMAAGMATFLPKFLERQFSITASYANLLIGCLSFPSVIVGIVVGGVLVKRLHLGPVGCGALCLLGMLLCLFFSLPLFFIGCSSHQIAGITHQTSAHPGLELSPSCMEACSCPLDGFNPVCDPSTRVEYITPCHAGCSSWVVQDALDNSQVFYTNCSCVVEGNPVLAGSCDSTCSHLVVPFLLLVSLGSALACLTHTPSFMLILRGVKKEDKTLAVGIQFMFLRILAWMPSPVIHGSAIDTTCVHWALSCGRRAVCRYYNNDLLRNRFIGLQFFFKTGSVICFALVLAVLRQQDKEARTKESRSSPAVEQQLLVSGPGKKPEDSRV

human MATE1 [2] = molecular target: T1, human MATE1; test: cell-based
P-gp = P-gp (Homo sapiens, UniProt P08183); test: biochemical
human MATE2 = human MATE2 (Homo sapiens, UniProt Q86VL8); test: cell-based
human OATP1B1 = molecular target: T4, human OATP1B1 (Homo sapiens, UniProt Q9Y6L6); conditions: for potency difference of the inhibitor for [3H]-EG vs [3H]-ES as OATP1B1 probes: inhibits EG at one-tenth (or lower) the concentration that inhibits ES
T4 sequence (Q9Y6L6 1-691): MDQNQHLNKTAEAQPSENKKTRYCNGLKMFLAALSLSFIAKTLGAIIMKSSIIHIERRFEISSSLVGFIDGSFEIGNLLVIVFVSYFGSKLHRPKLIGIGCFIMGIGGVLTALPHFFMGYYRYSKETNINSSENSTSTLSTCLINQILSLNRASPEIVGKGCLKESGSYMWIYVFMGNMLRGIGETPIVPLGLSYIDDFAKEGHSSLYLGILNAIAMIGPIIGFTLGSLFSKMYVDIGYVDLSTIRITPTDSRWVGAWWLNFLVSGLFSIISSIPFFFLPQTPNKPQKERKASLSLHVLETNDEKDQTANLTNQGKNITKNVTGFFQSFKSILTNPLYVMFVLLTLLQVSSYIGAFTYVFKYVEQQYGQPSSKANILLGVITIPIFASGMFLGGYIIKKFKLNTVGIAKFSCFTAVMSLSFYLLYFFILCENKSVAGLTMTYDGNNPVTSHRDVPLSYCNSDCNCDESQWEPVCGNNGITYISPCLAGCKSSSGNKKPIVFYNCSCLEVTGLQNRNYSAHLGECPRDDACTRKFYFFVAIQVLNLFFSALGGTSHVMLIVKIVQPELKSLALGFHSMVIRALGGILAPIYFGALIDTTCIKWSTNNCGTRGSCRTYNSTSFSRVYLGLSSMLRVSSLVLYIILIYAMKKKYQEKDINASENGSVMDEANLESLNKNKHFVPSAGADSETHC

human MATE2, sequence (Q86VL8 1-566 isoform Q86VL8-3): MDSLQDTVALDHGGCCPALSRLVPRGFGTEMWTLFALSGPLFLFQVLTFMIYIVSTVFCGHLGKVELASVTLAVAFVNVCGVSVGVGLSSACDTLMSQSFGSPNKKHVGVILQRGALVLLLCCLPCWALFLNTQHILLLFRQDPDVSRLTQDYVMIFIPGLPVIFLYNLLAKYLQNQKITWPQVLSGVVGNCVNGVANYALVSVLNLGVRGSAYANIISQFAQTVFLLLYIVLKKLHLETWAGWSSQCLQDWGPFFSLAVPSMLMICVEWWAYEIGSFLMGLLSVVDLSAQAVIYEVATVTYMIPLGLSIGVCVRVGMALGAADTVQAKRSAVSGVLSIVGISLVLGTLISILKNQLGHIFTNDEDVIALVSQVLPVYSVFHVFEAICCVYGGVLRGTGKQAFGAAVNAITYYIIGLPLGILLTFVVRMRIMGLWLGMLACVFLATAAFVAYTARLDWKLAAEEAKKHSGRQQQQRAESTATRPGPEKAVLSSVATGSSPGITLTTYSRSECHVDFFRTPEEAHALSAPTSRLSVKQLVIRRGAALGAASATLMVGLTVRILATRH
P-gp, sequence (P08183 whole entry): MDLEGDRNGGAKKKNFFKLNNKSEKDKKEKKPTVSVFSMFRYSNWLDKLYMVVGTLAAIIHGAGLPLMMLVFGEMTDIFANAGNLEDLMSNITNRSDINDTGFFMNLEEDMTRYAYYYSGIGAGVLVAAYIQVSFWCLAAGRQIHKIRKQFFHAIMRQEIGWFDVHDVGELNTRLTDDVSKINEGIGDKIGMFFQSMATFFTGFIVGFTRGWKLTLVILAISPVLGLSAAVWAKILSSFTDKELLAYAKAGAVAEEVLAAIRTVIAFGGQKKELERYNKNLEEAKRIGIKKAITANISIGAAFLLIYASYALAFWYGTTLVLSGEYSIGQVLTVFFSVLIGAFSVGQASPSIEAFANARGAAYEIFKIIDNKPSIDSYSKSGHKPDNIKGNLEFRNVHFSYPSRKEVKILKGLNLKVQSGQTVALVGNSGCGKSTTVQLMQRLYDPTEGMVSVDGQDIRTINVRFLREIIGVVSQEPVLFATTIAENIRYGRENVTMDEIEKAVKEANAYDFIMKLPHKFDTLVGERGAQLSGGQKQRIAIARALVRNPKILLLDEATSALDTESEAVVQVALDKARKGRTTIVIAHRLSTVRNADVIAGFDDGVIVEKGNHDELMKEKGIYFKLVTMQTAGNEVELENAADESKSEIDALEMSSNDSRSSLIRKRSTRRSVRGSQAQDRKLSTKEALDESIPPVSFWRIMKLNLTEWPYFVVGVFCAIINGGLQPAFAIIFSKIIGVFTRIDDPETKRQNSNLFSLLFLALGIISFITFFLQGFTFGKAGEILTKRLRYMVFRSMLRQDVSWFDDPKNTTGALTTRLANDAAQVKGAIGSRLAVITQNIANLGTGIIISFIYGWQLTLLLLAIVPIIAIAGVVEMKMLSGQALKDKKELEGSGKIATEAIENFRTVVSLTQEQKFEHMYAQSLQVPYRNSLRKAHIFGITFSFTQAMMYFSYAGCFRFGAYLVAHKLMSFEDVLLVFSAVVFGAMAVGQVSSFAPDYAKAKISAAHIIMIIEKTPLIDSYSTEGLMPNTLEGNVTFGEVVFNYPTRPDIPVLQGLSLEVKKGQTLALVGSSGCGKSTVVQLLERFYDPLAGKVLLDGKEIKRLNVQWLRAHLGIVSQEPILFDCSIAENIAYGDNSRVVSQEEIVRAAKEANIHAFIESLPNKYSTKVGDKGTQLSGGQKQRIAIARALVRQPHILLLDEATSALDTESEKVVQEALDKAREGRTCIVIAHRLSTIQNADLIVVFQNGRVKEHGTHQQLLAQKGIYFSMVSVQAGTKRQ

SMILES	Cu,max/IC50 MATE1 (human MATE1 [1])	IC50 (human OAT1) [µM]	IC50 (human OATP2B1) [µM]	IC50 (human MATE1 [2]) [µM]	IC50 (P-gp) [µM]	IC50 (human MATE2) [µM]	potency difference of the inhibitor for [3H]-EG vs [3H]-ES as OATP1B1 probes (human OATP1B1) [fold]	Iu,in,max/IC50 OATP1B1 (human OATP1B1; human)
CCCc1nn(C)c2c(=O)[nH]c(-c3cc(S(=O)(=O)N4CCN(C)CC4)ccc3OCC)nc12 [Sildenafil]	0.02	> 100	39 ± 12.8	2.4 ± 0.1	16	14.4 ± 1.3		
CC(C)CN(C[C@@H](O)[C@H](Cc1ccccc1)NC(=O)O[C@H]1CO[C@H]2OCC[C@H]21)S(=O)(=O)c1ccc(N)cc1 [Darunavir]		95	30.6 ± 7.7	43.8 ± 14.4	16	30.7 ± 20.2	> 10	
N#CC[C@H](C1CCCC1)n1cc(-c2ncnc3[nH]ccc23)cn1 [Ruxolitinib]	0.04	> 100	17.4 ± 8.6	0.7 ± 0.01	> 100	3.7 ± 2.3		
CCC(CC)COC(=O)[C@H](C)N[P@](=O)(OC[C@H]1O[C@@](C#N)(c2ccc3c(N)ncnn23)[C@H](O)[C@@H]1O)Oc1ccccc1 [Remdesivir]		> 100	3.5 ± 0.4	0.4 ± 0.1	14	15.2 ± 9.7	> 10	
CCOC(=O)c1c(CSc2ccccc2)n(C)c2cc(Br)c(O)c(CN(C)C)c12 [Umifenovir (Arbidol), Umifenovir]	0.13	> 100	3.5 ± 1.2	0.7 ± 0.2	16 ± 2	4.1 ± 1.6		0.93

From publication PMC8217266 (Clinical Pharmacology and Therapeutics, 2021)
